Assay results published in ChEMBL document CHEMBL3351921, “Structure-activity relationships (SAR) and structure-kinetic relationships (SKR) of pyrrolopiperidinone acetic acids as CRTh2 antagonists” (Bioorg Med Chem Lett, 2014).
Converted amounts (≈) assume the structure as drawn. The source made the active and inactive calls. The calls are words filed in the database; no cut-off is given here.

Assays:
[1] = AUC (0 to infinity) in rat at 10 mg/kg, po; assay type: ADME, organism-based; parameters: time infinity, dose 10 mg/kg, route oral; conditions: plasma
[2] = Volume of distribution at steady state in rat at 1 mg/kg, iv; assay type: ADME, organism-based; parameters: dose 1 mg/kg, route intravenous; conditions: in vivo, read-out: Vdss
[3] = Dissociation constant, pKa of the compound by potentiometric method; assay type: physicochemical
[4] = target: T1, Prostaglandin D2 receptor 2 (Homo sapiens, UniProt Q9Y5Y4); test: Antagonist activity at CRTh2 (unknown origin) stably expressed in PGD2-stimulated CHO.K1 cells preincubated for 30 mins by radio-labelled [35S]-GTPgammaS binding assay; assay type: functional, cell-based
T1 sequence (Q9Y5Y4 whole entry): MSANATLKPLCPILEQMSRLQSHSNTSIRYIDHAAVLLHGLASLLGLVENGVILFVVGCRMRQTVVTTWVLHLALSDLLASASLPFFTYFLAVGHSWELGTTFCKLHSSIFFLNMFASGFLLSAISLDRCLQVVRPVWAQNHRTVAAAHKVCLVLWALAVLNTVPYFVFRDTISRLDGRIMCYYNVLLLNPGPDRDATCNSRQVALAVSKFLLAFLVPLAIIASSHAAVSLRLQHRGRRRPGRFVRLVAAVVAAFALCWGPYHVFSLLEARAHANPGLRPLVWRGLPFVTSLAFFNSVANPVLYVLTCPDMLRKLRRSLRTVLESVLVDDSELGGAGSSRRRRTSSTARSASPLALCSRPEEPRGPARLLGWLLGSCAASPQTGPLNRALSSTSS

Cavia porcellus = organism: Cavia porcellus; test: Antiinflammatory activity in guinea pig eosinophilia model; assay type: functional, organism-based
[5] = Cmax in rat at 1 mg/kg, iv; assay type: ADME, organism-based; parameters: dose 1 mg/kg, route intravenous; conditions: in vivo
[6] = Terminal half life in rat at 10 mg/kg, po; assay type: ADME, organism-based; parameters: dose 10 mg/kg, route oral; conditions: in vivo, read-out: beta t1/2 (converted)
[7] = target: T2, Prostaglandin D2 receptor (Homo sapiens) (UniProt Q13258); test: Inhibition of at prostanoid DP1 receptor (unknown origin) at 10 uM
T2 sequence (whole entry): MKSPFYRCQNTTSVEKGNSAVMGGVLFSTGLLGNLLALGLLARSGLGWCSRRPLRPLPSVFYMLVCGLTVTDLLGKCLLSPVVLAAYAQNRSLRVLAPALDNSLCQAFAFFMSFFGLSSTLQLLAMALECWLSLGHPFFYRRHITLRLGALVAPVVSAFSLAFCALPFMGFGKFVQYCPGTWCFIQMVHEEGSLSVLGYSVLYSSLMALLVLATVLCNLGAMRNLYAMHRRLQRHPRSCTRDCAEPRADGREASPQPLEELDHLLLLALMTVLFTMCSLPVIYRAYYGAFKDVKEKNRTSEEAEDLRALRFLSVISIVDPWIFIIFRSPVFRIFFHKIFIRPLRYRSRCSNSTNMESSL

[8] = target: T3, Thromboxane A2 receptor (Homo sapiens) (UniProt P21731); test: Inhibition of at prostanoid TP receptor (unknown origin) at 10 uM
T3 sequence (whole entry): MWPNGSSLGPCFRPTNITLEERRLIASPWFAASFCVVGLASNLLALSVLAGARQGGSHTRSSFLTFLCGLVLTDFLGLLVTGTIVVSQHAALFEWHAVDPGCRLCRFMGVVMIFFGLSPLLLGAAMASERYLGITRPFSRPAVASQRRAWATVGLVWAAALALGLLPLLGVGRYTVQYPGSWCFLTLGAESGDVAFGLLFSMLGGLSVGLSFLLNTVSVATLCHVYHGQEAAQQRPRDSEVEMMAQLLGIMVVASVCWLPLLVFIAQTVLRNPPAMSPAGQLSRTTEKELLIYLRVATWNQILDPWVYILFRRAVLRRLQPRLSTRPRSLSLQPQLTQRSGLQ

[9] = target: T1, Prostaglandin D2 receptor 2; test: Antagonist activity at CRTh2 (unknown origin) stably expressed in CHO.K1 cells co-mixing the compound and PGD2 by radio-labelled [35S]-GTPgammaS binding assay; assay type: functional, cell-based
[10] = target: T4, Prostaglandin D2 receptor 2 (Homo sapiens) (UniProt Q9Y5Y4); conditions: CHO.K1
T4 sequence (whole entry): T1 sequence (Q9Y5Y4 whole entry)
Description: Antagonist activity at CRTh2 (unknown origin) stably expressed in PGD2-stimulated CHO.K1 cells assessed as dissociation half-life at 5 to 10 times IC50 after 2 hrs by radio-labelled [35S]-GTPgammaS binding assay

[11] = target: T1, Prostaglandin D2 receptor 2; test: Antagonist activity at CRTh2 (unknown origin) stably expressed in PGD2-stimulated CHO.K1 cells preincubated for 15 mins by radio-labelled [35S]-GTPgammaS binding assay; assay type: functional, cell-based
[12] = Apparent permeability across apical to basolateral side of human Caco2 cells at pH 7.4; assay type: ADME, cell-based; conditions: Caco-2, pH 7.4
[13] = Terminal half life in rat at 1 mg/kg, iv; assay type: ADME, organism-based; parameters: dose 1 mg/kg, route intravenous; conditions: in vivo, read-out: beta t1/2 (converted)
[14] = target: T1, Prostaglandin D2 receptor 2; test: Antagonist activity at CRTh2 (unknown origin) stably expressed in PGD2-stimulated CHO.K1 cells preincubated for 180 mins by radio-labelled [35S]-GTPgammaS binding assay; assay type: functional, cell-based
[15] = Oral bioavailability in rat at 10 mg/kg; assay type: ADME, organism-based; conditions: in vivo
[16] = Cmax in rat at 10 mg/kg, po; assay type: ADME, organism-based; parameters: dose 10 mg/kg, route oral; conditions: in vivo
[17] = target: T1, Prostaglandin D2 receptor 2; test: Antagonist activity at CRTh2 (unknown origin) stably expressed in PGD2-stimulated CHO.K1 cells preincubated for 120 mins by radio-labelled [35S]-GTPgammaS binding assay; assay type: functional, cell-based
[18] = AUC (0 to infinity) in rat at 1 mg/kg, iv; assay type: ADME, organism-based; parameters: time infinity, dose 1 mg/kg, route intravenous; conditions: plasma
[19] = Clearance in rat at 1 mg/kg, iv; assay type: ADME, organism-based; parameters: dose 1 mg/kg, route intravenous; conditions: in vivo
[20] = target: T1, Prostaglandin D2 receptor 2; test: Antagonist activity at CRTh2 (unknown origin) stably expressed in PGD2-stimulated CHO.K1 cells preincubated for 1 hr by radio-labelled [35S]-GTPgammaS binding assay; assay type: functional, cell-based
[21] = target: T1, Prostaglandin D2 receptor 2; test: Antagonist activity at CRTh2 (unknown origin) stably expressed in PGD2-stimulated CHO.K1 cells preincubated for 60 mins by radio-labelled [35S]-GTPgammaS binding assay; assay type: functional, cell-based
[22] = Lipophilicity, log D of the compound by shake-flask method; assay type: physicochemical; conditions: octanol/water
[23] = Aqueous solubility of the compound at pH 7.4; assay type: physicochemical
[24] = Aqueous solubility of the compound at pH 1; assay type: physicochemical
[25] = target: T1, Prostaglandin D2 receptor 2; test: Antagonist activity at CRTh2 (unknown origin) stably expressed in CHO.K1 cells preincubated for 1 hr by radio-labelled [35S]-GTPgammaS binding assay in presence of 4% HSA; assay type: functional, cell-based
[26] = Apparent permeability across basolateral to apical side of human Caco2 cells at pH 7.4; assay type: ADME, cell-based; conditions: Caco-2, pH 7.4
Rattus norvegicus [27] = test: AUC (0 to infinity) in rat assessed as 2-(2-methyl-4-oxo-3-(2-(phenylsulfonyl)benzyl)-4,5,6,7-tetrahydro-1H-pyrrolo[3,2-c]pyridin-1-yl)acetic acid at 1 mg/kg, iv; assay type: ADME, organism-based, Plasma; parameters: time infinity, dose 1 mg/kg, route intravenous; conditions: in vivo
Rattus norvegicus [28] = test: AUC (0 to infinity) in rat assessed as 2-(2-methyl-4-oxo-3-(2-(phenylsulfonyl)benzyl)-4,5,6,7-tetrahydro-1H-pyrrolo[3,2-c]pyridin-1-yl)acetic acid at 10 mg/kg, po; assay type: ADME, organism-based, Plasma; parameters: time infinity, dose 10 mg/kg, route oral; conditions: in vivo
Rattus norvegicus [29] = test: Oral bioavailability in rat assessed as 2-(2-methyl-4-oxo-3-(2-(phenylsulfonyl)benzyl)-4,5,6,7-tetrahydro-1H-pyrrolo[3,2-c]pyridin-1-yl)acetic acid at 10 mg/kg; assay type: ADME, organism-based; conditions: in vivo
Rattus norvegicus [30] = test: Terminal half life in rat assessed as 2-(2-methyl-4-oxo-3-(2-(phenylsulfonyl)benzyl)-4,5,6,7-tetrahydro-1H-pyrrolo[3,2-c]pyridin-1-yl)acetic acid at 1 mg/kg, iv; assay type: ADME, organism-based; parameters: dose 1 mg/kg, route intravenous; conditions: in vivo
Rattus norvegicus [31] = test: Volume of distribution at steady state in rat assessed as 2-(2-methyl-4-oxo-3-(2-(phenylsulfonyl)benzyl)-4,5,6,7-tetrahydro-1H-pyrrolo[3,2-c]pyridin-1-yl)acetic acid at 1 mg/kg, iv; assay type: ADME, organism-based; parameters: dose 1 mg/kg, route intravenous; conditions: in vivo
Rattus norvegicus [32] = test: Cmax in rat assessed as 2-(2-methyl-4-oxo-3-(2-(phenylsulfonyl)benzyl)-4,5,6,7-tetrahydro-1H-pyrrolo[3,2-c]pyridin-1-yl)acetic acid at 1 mg/kg, iv; assay type: ADME, organism-based; parameters: dose 1 mg/kg, route intravenous; conditions: in vivo
Rattus norvegicus [33] = test: Terminal half life in rat assessed as 2-(2-methyl-4-oxo-3-(2-(phenylsulfonyl)benzyl)-4,5,6,7-tetrahydro-1H-pyrrolo[3,2-c]pyridin-1-yl)acetic acid at 10 mg/kg, po; assay type: ADME, organism-based; parameters: dose 10 mg/kg, route oral; conditions: in vivo
Rattus norvegicus [34] = test: Cmax in rat assessed as 2-(2-methyl-4-oxo-3-(2-(phenylsulfonyl)benzyl)-4,5,6,7-tetrahydro-1H-pyrrolo[3,2-c]pyridin-1-yl)acetic acid at 10 mg/kg, po; assay type: ADME, organism-based; parameters: dose 10 mg/kg, route oral; conditions: in vivo

| pKa [3] | IC50 [4] [nM] | inhibition [7] [%] | inhibition [8] [%] | IC50 [9] [nM] | T1/2 [10] [h] | IC50 [11] [nM] | Papp A→B [12] [nm/s] | IC50 [14] [nM] | IC50 [17] [nM] | IC50 [20] [nM] | IC50 [21] [nM] | Compound | further results |
| --- | --- | --- | --- | --- | --- | --- | --- | --- | --- | --- | --- | --- | --- |
| 3 | 5.5 | < 30 | < 30 | 7.7 | 10 | 6.3 | 11 | 2.1 | 2.9 | 4 | 4.2 | Cc1c(Cc2ccccc2S(=O)(=O)c2ccccc2)c2c(n1CC(=O)O)CC(C)(C)NC2=O | AUC(0-inf) [1]: 0.275 µg·h/mL; Vd [2]: 0.19 L/kg; Activity (Cavia porcellus): Active; Cmax [5]: 5.49 µg/mL; half-life [6]: 2.5 h; half-life [13]: 0.8 h; bioavailability [15]: 1.3%; Cmax [16]: 0.126 µg/mL; AUC(0-inf) [18]: 2.05 µg·h/mL; clearance [19]: 0.504 L/h/kg |
| 3 | 4.5 | < 30 | < 30 | 6.5 | 2.3 | 4.9 | 0.1 | 3 | 3 | 5 | 4 | Cc1c(Cc2ccccc2S(=O)(=O)c2ccccc2)c2c(n1CC(=O)O)CCNC2=O | logD [22]: 0.9; solubility [23]: 0.87 mg/mL (≈ 1980 µM); solubility [24]: 0.5 mg/mL (≈ 1140 µM); IC50 [25]: 10 nM; Papp B→A [26]: 1 nm/s |
|  |  |  |  |  |  |  |  |  |  |  |  | CCOC(=O)Cn1c(C)c(Cc2ccccc2S(=O)(=O)c2ccccc2)c2c1CCNC2=O | AUC (Rattus norvegicus [27]): 1.726 µg·h/mL; AUC (Rattus norvegicus [28]): 4.623 µg·h/mL; F (Rattus norvegicus [29]): 27%; beta t1/2 (Rattus norvegicus [30]): 0.3 h; Vdss (Rattus norvegicus [31]): 0.25 L/kg; Cmax (Rattus norvegicus [32]): 5.37 µg/mL; beta t1/2 (Rattus norvegicus [33]): 7.4 h; Cmax (Rattus norvegicus [34]): 0.842 µg/mL |
